Earlier results on 1 compound are cited in patent US20250049743A1, “METHOD OF PRODUCING AN ORAL OSMOTIC PHARMACEUTICAL DELIVERY SYSTEM AND A PHARMACEUTICAL BATCH PRODUCED USING THE SAME” (United Therapeutics Corporation, priority 2023, published 2025).

The conditions of the data set: treprostinil as the free acid.

Take `CCCCC[C@H](O)CC[C@@H]1[C@H]2Cc3cccc(OCC(=O)O)c3C[C@H]2C[C@H]1O` [treprostinil]: the absolute oral bioavailability result is listed as “less than 10%”.
